Measurements published in patent US20200146989A1, “A CO-AMORPHOUS FORM OF A SUBSTANCE AND A DIPEPTIDE” (University of Copenhagen, priority 2016, published 2020).
Several values for one entry are separate records, joined by “and”; a condition that tells them apart may be missing. Equal entries are not always repeated. Blank lines part the entries; values can stand above or below the molecule they belong to.

Assays:
Format in all cases: physicochemical
[1] = Physical stability of amorphous and co-amorphous samples on dry storage, recrystallization detected by XRPD; details: for Stability at 40° C. / Stability at room temperature: dry conditions, amorphous halo in XRPD
Protocol: The X-ray powder diffraction (XRPD) analysis was performed using […] Diffractometer (PANalytical, Almelo, The Netherlands) using a Cu Kα radiation source (λ=1.54187 Å). An acceleration voltage and current of 45 kV and 40 mA were used. Samples were scanned in reflection mode between 5° and 35° 2θ with a scan speed of 0.0673° 2θ/s and a step size of 0.0262°. Data were collected and analyzed using the software X'Pert Data Collector (PANalytical, Almelo, The Netherlands). Samples were filled onto aluminum sample holders and gently compressed with a spatula, in order to contain a compacted and smooth surface. The pure amorphous drugs and co-amorphous mixtures were stored under dry conditions in desiccators at room temperature and 40° C.

[2] = Intrinsic dissolution rate (IDR) of compressed disks; details: 0.01M phosphate buffer pH 7.2, 37° C., 100 rpm, triplicate
Protocol: For the intrinsic dissolution rate (IDR) studies, 150 mg of powder was compressed directly into stainless steel cylinders, which served as IDR sample holders, with a hydraulic press (Hydraulische Presse Model IXB-102-9, PerkinElmer, Ueberlingen, Germany). Disks of pure crystalline drug, pure amorphous drug, and the co-amorphous blends of respectively drug-AA, drug-AA-AA and drug-dipeptide, shown in table 1.1, were compressed at different compaction pressures between 124.9 MPa and 249.7 MPa for 60 seconds in order to obtain a stable compact with smooth surface.
For the dissolution experiment an Erweka DT70 dissolution tester (Erweka GmbH, Heusenstamm, Germany) was used. […] The samples were analyzed with the respective HPLC method for the different drugs as described below. […]
The IDR was calculated as the drug release per accessibility area (μg cm^−2). For this purpose the drug concentration at the different time points was analyzed with HPLC (μg mL-^1), multiplied with 900 ml and divided with the accessible surface area of the drug.
For the pure drugs the accessible area, was set to be the surface area of the compact (0.7854 cm^2). […] The corrected accessible surface area was calculated based on the accessibility area within the mixture. […] From the calculated drug volume and the total volume of the tablet the relative drug volume percentage could be determined. […]

[3] = Ease of amorphization by ball milling, checked by XRPD; set-up: key to Success in amorphization (yes/no): yes=y; no=n
Protocol: Amorphous and co-amorphous systems of the pure drugs and the binary and ternary mixtures with the amino acids or ASPA were prepared by vibrational ball milling.
The samples were prepared by placing a total amount of 500 mg of either the pure crystalline drug, mixtures of drug with one or two amino acids (molar ratio of either 1:1 or 1:1:1) or drug-dipeptides (1:1 molar ratio) in 25 ml milling jars containing two 12 mm stainless steel balls. The samples were milled at 30 Hz up to 180 min in an oscillatory ball mill (Mixer Mill MM400, Retch GmbH & Co, Haan, Germany) placed in a cooling room at 6° C.
The X-ray powder diffraction (XRPD) analysis was performed using a X'Pert Pro X-ray Diffractometer (PANalytical, Almelo, The Netherlands) using a Cu Kα radiation source (λ=1.54187 Å). An acceleration voltage and current of 45 kV and 40 mA were used. Samples were scanned in reflection mode between 5° and 35° 2θ with a scan speed of 0.0673° 2θ/s and a step size of 0.0262°. Data were collected and analyzed using the software X'Pert Data Collector (PANalytical, Almelo, The Netherlands). Samples were filled onto aluminum sample holders and gently compressed with a spatula, in order to contain a compacted and smooth surface.

[4] = Powder dissolution, miniaturized USP 2 set-up; details: 0.1 M phosphate buffer pH 6.8, 37° C.; for MEB concentration released after 20 min of dissolution: 100 rpm, 5 mg MEB in 100 ml
Protocol: Powder dissolution studies were performed in an ERWEKA DT70 dissolution tester (Heusenstamm, Germany) equipped with a custom-made miniaturized dissolution set-up described earlier [DOI: 10.1208/s12249-008-9161-6]. This set-up is a down-scaled version (the vessel size is 250 mL) of USP apparatus 2, and the hydrodynamics is essentially similar to the standard USP 2 apparatus. Pure drugs, drug-ASPA mixtures or drug-dipeptide mixtures containing an equivalent amount of 5 mg of MEB or 5 mg of TAD in total were placed in 100 ml of 0.1 M phosphate buffer (pH 6.8, 37° C.) and stirred at a rotation speed of 100 rpm. At predetermined time points (2, 5, 10, 20, 30, 60, 120, 180, 240, 300 and 360 min), 1 ml sample was withdrawn and immediately replaced with pre-warmed dissolution buffer. The obtained samples were quantified after filtration (0.45 μm) with the respective HPLC method for the different drugs as described below. All dissolution experiments were conducted in triplicate.
All samples from the dissolution studies were analyzed on a Dionex (Germering, Germany) HPLC system equipped with a P680 pump, an ASI-100 automated sample injector and a PDA 100 photodiode array detector was used. A reverse-phase Kinetex C18 ([…]×4.6 mm, 5 μm) column with UV detection at 240 nm for CRV, 264 nm for IND, 312 nm for MEB and 285 nm for TAD was used, with a constant flow rate of 1.0 ml min^−1 and an isocratic solvent system. The mobile phases (MP) consisted of 50% (V/V) phosphoric acid (pH=2) and 50% MeOH for the analysis of CRV, 25% (V/V) phosphoric acid (pH=2) and 75% MeOH for the analysis of IND, 47% (V/V) of 0.05 M KH2PO4, 20% (V/V) of acetonitrile and 33% (V/V) methanol for the analysis of MEB, 60% (V/V) 0.0724 M pH 6.8 phosphate buffer and 40% (V/V) of acetonitrile for the analysis of TAD, respectively. Chromatograms were analyzed by using Chromeleon Version 7.1.3.2425 software. […]

Stability at 40° C. ([1]; IND and CRV): <7 days
Stability at room temperature ([1]; IND and CRV): <7 days
recrystallization peaks in the XRPD diffractograms within ([1]; storage at room temperature and 40° C. dry conditions, temperature not split in the sentence): ≤ 7 days
intrinsic dissolution rate (IDR) [2]: 0.128±0.004 mg cm^−2 min^−1
Compound: COc1ccc2c(c1)c(CC(=O)O)c(C)n2C(=O)c1ccc(Cl)cc1 [IND, Indomethacin]

Milling time fully amorphization ([3]; MEB samples, XRPD at 30, 60, 90 and 180 min of ball milling): 60 min
Success in amorphization (yes/no) ([3]; MEB samples, ball milled, XRPD at 30, 60, 90 and 180 min): y
Stability at room temperature ([1]; MEB and TAD): >2 months
MEB concentration released after 20 min of dissolution ([4]; listed as amorphous MEB): 0.99 µg/mL
concentration after 240 min of dissolution as fold of crystalline MEB ([4]; 240 min): approx. 4.3 fold
Compound: COC(=O)Nc1nc2ccc(C(=O)c3ccccc3)cc2[nH]1 [MEB, Mebendazole]

Success in amorphization (yes/no) ([3]; IND and CRV samples, ball milled 90 or 180 min, XRPD): y
Compound: COc1ccccc1OCCNCC(O)COc1cccc2[nH]c3ccccc3c12 (centres unmarked) [CRV, Carvedilol]
intrinsic dissolution rate (IDR) ([2]; listed as amorphous CRV): 0.0086±0.001 mg cm^−2 min^−1 and 0.009±0.001 mg cm^−2 min^−1

Stability at 40° C. ([1]; MEB and TAD): >2 months
Stability at room temperature ([1]; MEB and TAD): >2 months
Compound: CN1CC(=O)N2[C@H](c3ccc4c(c3)OCO4)c3[nH]c4ccccc4c3C[C@@H]2C1=O [TAD, Tadalafil]

MEB concentration released after 20 min of dissolution [4]: 0.23 µg/mL
Compound: COC(=O)Nc1nc2ccc(C(=O)c3ccccc3)cc2[nH]1 [crystalline MEB, Mebendazole]
